# Patent US20060241174A1, “Vitamin E tocotrienols inhibition of intracellularly obligate pathogen Chlamydia and methods of use” (priority 2005, published 2006)
# System: C. trachomatis serovar K
# Assay: Inclusion count by immunofluorescence in C. trachomatis-infected mouse macrophages (J774A.1) treated with delta tocotrienol
# Format: cell-based, Chlamydia trachomatis
# Description: FIG. 3 illustrates Chlamydia-infected mouse macrophage cells treated with delta tocotrienol (400× magnification). Mouse macrophages (J774A. 1 cells) were pretreated with a 30 μmol/L concentration of delta tocotrienol in culture for 4 hours and infected with C. trachomatis SVK for 48 hours. Arrows indicate inclusions. Cells were viewed and digitally documented using a Zeiss LSM 510 Meta Confocal System at a magnification of 400×. White arrows point out characteristic inclusions (Scale indicates 50 μm).
# FIG. 4 illustrates Chlamydia-infected mouse macrophage cells treated with delta tocotrienol (630× magnification). White arrows point to representative cells. Note numerous very small, unfused inclusions in A (Scale indicates 50 μm).
# Chlamydial Strains: Stocks of C. trachomatis serovar K/VR887 were grown in J774A.1 cells without centrifuge assistance. Infected cells were lysed, this stock aliquoted and frozen down in SPG freeze medium (75.0 g sucrose, 0.52 g potassium phosphate, 1.22 g sodium phosphate dibasic, 0.72 g glutamic acid, diluted in […] ddH2O). These aliquots were stored in liquid N2 or at −80° C., and later thawed for use to infect monolayers.
# Cell Lines Used: Mouse macrophages (J774A.1), human mammary tumor cells (MCF-7), and human epithelial cells (Hep-2), were obtained from the American Type Culture collection. Human mammary tumor cells (TMX2-28) were a kind gift from Dr. Arcaro, and human B-lymphocytes (JY) were a kind gift from Dr. Eric Martz. All cell lines were maintained in Richter's improved MEM insulin (IMEMZO, Irvine Scientific, Santa Ana, Calif.) with 5% fetal bovine serum (FBS, Atlanta Biologicals, Norcross, Ga.). Cells were grown to 80% confluence on 12 mm coverslips in 12 well plates (Becton Dickinson Labware, Franklin Lakes, N.J.). A dilution of 1:125 or 1:200 of the C. trachomatis serovar K stock was made using the standard complete cycloheximide overlay media (Bio-Whittaker, Walkersville, Md.) containing 10% FBS, and 1× L-glutamine (CCOM). This was layered onto the coverslip containing monolayers, and incubated for 24-48 hours at 37° C. with 5% CO2. Coverslips with the cell monolayers were harvested, rinsed with phosphate buffered saline (PBS), fixed with 70% cold methanol, stored and subsequently immunostained.
# Delta Tocotrienol Treatment: A stock of delta tocotrienol (98% purity, American River Nutrition, Hadley, Mass.) was diluted to 1 mg/1 ml in absolute ethanol [EtOH]. Confluent monolayers of J774A.1, MCF-7, TMX2-28, JY, or Hep-2 cells were treated with 5, 10, 20, 30, or 40 μmol/L concentrations of delta tocotrienol. Treatment occurred 5 hours prior to infection with C. trachomatis serovar K, at point of infection, or three hours post-infection.
# Immunostaining: Briefly, infected cells were immunostained with a 1:2 dilution of guinea pig anti-chlamydia polyclonal antibody (Biomeda, Foster City, Calif.), or a 1:125 dilution of rabbit anti-chlamydia EB whole serum for 1 hour at 37° C. Following PBS rinses X3, the bound antibodies were detected using a 1:100 dilution of FITC-conjugated donkey anti-guinea pig or a 1:125 dilution of TRITC-conjugated goat anti-rabbit secondary antibodies (Jackson ImmunoResearch, West Grove, Pa.). Following incubation for 1 hour at room temperature and 3 rinses with PBS, coverslips were mounted onto slides using Fluoromount-G (Southern Biotechnology Associates Inc., Birmingham, Ala.) or Vectashield® Mounting Medium with DAPI (Vector Laboratories, Inc., Burlingame, Calif.), and were then sealed. Initially, slides were examined at 400× using a Nikon LABPHOT-2. For photography, slides were assessed in the Massachusetts Central Microscopy Facility using a Zeiss LSM 510 Meta Confocal System and 630× magnification. Images were captured, and as relevant, merged using the Confocal Assistant™ version 4.02 Image Processing Software.
# Counts on all coverslips with experimental conditions as in FIG. 3 and 4 were done for the average of 10 fields of view. […]
# [1] = First Infection, J774A.1, 30 μmol/L
# [2] = Second Infection, J774A.1, 30 μmol/L
# [3] = Third Infection, J774A.1, 30 μmol/L
substance,measurement,setting,value
delta tocotrienol,morphology of chlamydial inclusions (FIG. 4),"20-40 μmol/L delta tocotrienol, Chlamydia-specific immunofluorescence staining","immature, small, and less round"
same,"Inclusions (per field of view), Small (≦10 μm)",[1],4.5 per field of view
same,"Inclusions (per field of view), Total",[1],5.2 per field of view
same,Inclusions Total/Cell,[1],0.058
same,"Inclusions (per field of view), Large (15-20 μm)","First Infection, J774A.1, 30 μmol/L delta tocotrienol, average of 10 fields of view",0.7 per field of view
same,Percent Inhibition,"First Infection, treated vs control, J774A.1, 30 μmol/L",52.3%
same,"large, mature inclusions (FIG. 3)","J774A.1, 30 μmol/L pretreatment, 48 hours infection, 400× magnification","no evidence of large, mature inclusions"
same,size of large inclusions in the tocotrienol-treated cells,"J774A.1, control cells 20 μm",10-15 μm
same,inclusions thinner than in control cells (Z-axis),"J774A.1, optical sections, treated vs control",3 fold
same,inclusions smaller than in control cells (X-Y axes),"J774A.1, treated vs control",2 to 3 fold
same,"Inclusions (per field of view), Large (15-20 μm)","Second Infection (supernatant transfer to uninfected treated cells), J774A.1, 30 μmol/L",1.4 per field of view
same,"Inclusions (per field of view), Small (≦10 μm)",[2],0.6 per field of view
same,"Inclusions (per field of view), Total",[2],2.0 per field of view
same,Inclusions Total/Cell,[2],0.032
same,Percent Inhibition,"Second Infection, treated vs control, J774A.1, 30 μmol/L",43.8%
same,"Inclusions (per field of view), Large (15-20 μm)",[3],0.7 per field of view
same,"Inclusions (per field of view), Small (≦10 μm)",[3],1.1 per field of view
same,"Inclusions (per field of view), Total",[3],1.8 per field of view
same,Inclusions Total/Cell,[3],0.016
same,Percent Inhibition,"Third Infection, treated vs control, J774A.1, 30 μmol/L",39.0%
same,chlamydial inclusion volume smaller than control,calculated (2×3 to 3×3),6-9 fold
same,percent inhibition of inclusion formation in tocotrienol-treated as compared to untreated cells,"summary of Table 1, 30 μmol/L",40-50%
same,number of chlamydial inclusions (immunofluorescence staining),"tocotrienol-treated cells vs control, FIG. 3, Table 1",decreased significantly
